BindingDB's records for doi:10.1016/j.bmcl.2008.11.037 (Wyeth Research, 2009)

Target: Insulin-like growth factor 1 receptor (Homo sapiens, UniProt P08069)
Assay: In Vitro Kinase Inhibition Assay
Protocol: Assays were performed in microtiter plates in reaction buffer containing biotinylated substrate, ATP, and purified kinase in the presence of test compounds. After incubation, product was detected using a homogeneous time-resolved fluorescence quenching assay (LANCE).

Chain of Insulin-like growth factor 1 receptor (P08069 31-736 limits assumed): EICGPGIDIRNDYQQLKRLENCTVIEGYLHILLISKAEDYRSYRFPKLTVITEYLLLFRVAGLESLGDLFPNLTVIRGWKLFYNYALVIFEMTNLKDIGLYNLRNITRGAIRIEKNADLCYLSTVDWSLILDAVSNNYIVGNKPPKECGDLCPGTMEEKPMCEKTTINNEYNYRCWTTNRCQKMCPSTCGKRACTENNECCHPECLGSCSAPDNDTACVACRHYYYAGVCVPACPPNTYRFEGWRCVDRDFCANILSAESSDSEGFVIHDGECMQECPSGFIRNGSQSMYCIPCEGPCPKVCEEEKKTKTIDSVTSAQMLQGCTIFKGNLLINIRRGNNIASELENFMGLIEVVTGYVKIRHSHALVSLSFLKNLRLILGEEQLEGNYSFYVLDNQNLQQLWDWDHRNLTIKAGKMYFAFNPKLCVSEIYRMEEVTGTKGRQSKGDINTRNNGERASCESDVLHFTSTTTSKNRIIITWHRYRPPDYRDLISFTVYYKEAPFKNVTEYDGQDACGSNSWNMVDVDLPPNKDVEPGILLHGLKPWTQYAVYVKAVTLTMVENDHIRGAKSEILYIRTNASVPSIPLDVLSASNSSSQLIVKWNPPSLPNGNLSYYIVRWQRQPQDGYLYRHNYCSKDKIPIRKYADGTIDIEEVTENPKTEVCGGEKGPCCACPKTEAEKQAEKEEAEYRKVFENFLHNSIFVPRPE
Chain of Insulin-like growth factor 1 receptor (P08069 741-1367 limits assumed): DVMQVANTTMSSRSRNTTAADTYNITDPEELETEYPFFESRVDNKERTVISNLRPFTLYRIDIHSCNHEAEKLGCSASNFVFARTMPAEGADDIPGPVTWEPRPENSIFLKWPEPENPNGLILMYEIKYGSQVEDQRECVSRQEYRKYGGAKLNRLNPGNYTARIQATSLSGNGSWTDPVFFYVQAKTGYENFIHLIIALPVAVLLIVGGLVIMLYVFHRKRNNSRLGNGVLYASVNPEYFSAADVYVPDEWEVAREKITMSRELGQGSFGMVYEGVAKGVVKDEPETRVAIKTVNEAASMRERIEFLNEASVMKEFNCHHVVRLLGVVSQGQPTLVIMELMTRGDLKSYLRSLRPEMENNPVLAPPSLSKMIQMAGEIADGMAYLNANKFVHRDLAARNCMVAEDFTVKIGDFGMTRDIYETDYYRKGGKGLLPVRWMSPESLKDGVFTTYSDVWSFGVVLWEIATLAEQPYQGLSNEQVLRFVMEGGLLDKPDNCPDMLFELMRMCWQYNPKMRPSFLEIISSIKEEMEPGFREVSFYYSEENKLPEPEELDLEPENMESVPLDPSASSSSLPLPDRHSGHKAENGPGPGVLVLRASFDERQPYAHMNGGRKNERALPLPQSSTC

Row | Compound | IC50 [nM] | IC50 (pH 7.5, 22 °C) [nM]
1 | CCn1c(Sc2ccc(Nc3c(C#N)cnc4cc(OCCCN5CCN(CCOC(N)=O)CC5)c(OC)cc34)cc2Cl)nc(C)c1C [{2-[4-(3-{[4-({3-chloro-4-[(1-ethyl-4,5-dimethyl-1H-imidazol-2-yl)sulfanyl]phenyl}amino)-3-cyano-6-methoxyquinolin-7-yl]oxy}propyl)piperazin-1-yl]ethyl} carbamate] | 17 | –
2 | CCn1c(Sc2ccc(Nc3c(C#N)cnc4cc(NCCCN5CCOCC5)c(OC)cc34)cc2Cl)nc(C)c1C [4-({3-chloro-4-[(1-ethyl-4,5-dimethyl-1H-imidazol-2-yl)sulfanyl]phenyl}amino)-6-methoxy-7-{[3-(morpholin-4-yl)propyl]amino}quinoline-3-carbonitrile] | – | 20
3 | COc1cc2c(Nc3ccc(Sc4ccccc4)cc3)c(C#N)cnc2cc1OCCCN1CCOCC1 [6-methoxy-7-[3-(morpholin-4-yl)propoxy]-4-{[4-(phenylsulfanyl)phenyl]amino}quinoline-3-carbonitrile] | 1090 | –
4 | CCOC(=O)C1CCN(CCCOc2cc3ncc(C#N)c(Nc4ccc(Sc5nc(C)c(C)n5CC)c(Cl)c4)c3cc2OC)CC1 [ethyl 1-(3-{[4-({3-chloro-4-[(1-ethyl-4,5-dimethyl-1H-imidazol-2-yl)sulfanyl]phenyl}amino)-3-cyano-6-methoxyquinolin-7-yl]oxy}propyl)piperidine-4-carboxylate] | – | 135
5 | COc1cc2c(Nc3ccc(Sc4ncc(C)n4C)c(Cl)c3)c(C#N)cnc2cc1NCCCN(C)C [4-({3-chloro-4-[(1,5-dimethyl-1H-imidazol-2-yl)sulfanyl]phenyl}amino)-7-{[3-(dimethylamino)propyl]amino}-6-methoxyquinoline-3-carbonitrile] | – | 291
